Data on 16 compounds can be found in ChEMBL document CHEMBL4020729, “Synthesis and evaluation of anti-plasmodial and cytotoxic activities of epoxyazadiradione derivatives” (Eur J Med Chem, 2017).

Molecules are shown by their SMILES. The source made the active and inactive calls. The rule behind the calls is not given here.

One experiment relates to PANC-1. Description: Antiproliferative activity against human PANC1 cells after 48 hrs by SRB assay. In kind it is functional, cell-based. The note with it: PANC-1, 48 h. In general terms: In SRB staining, fixed cells bind dye roughly in proportion to their protein.
A further experiment deals with SiHa. Description: Antiproliferative activity against human SiHa cells after 48 hrs by SRB assay. The format is functional, cell-based.
Experiment [1] has as its system Plasmodium falciparum. Description: Anti-plasmodial activity against chloroquine-resistant Plasmodium falciparum Dd2 infected in human erythrocytes after 50 hrs by SYBR green dye based fluorescence assay. The format is functional, cell-based. The note with it: Dd2, 50 h.
For experiment [2], the system named is Plasmodium falciparum. Description: Anti-plasmodial activity against chloroquine-sensitive Plasmodium falciparum 3D7 infected in human erythrocytes after 50 hrs by SYBR green dye based fluorescence assay. The format is functional, cell-based. Particulars: 3D7, 50 h.
A further experiment deals with MDA-MB-231. Description: Antiproliferative activity against human MDA-MB-231 cells after 48 hrs by SRB assay. The format is functional, cell-based. The note with it: MDA-MB-231, 48 h.
Another experiment relates to IMR-32. Description: Antiproliferative activity against human IMR32 cells after 48 hrs by SRB assay. The format is functional, cell-based. The note with it: IMR-32, 48 h.
Another experiment relates to Plasmodium berghei. Description: Anti-plasmodial activity against Plasmodium berghei ANKA infected in BALB/c mouse at 50 mg/kg, ip assessed as reduction in parasitemia administered once per day for 4 days by Giemsa staining based light microscopic assay. The format is functional, organism-based.

A word on the IC50: it is the concentration needed to halve the response being measured. A high value points to weaker potency in that assay. Regarding `CC(=O)O[C@@H]1C[C@H]2C(C)(C)C(=O)C=C[C@]2(C)[C@H]2CC[C@@]3(C)[C@H](c4ccoc4)C(=O)[C@H]4O[C@]43[C@@]21C` [EPOXYAZADIRADIONE], the IC50 was more than 100 µM in the experiment with PANC-1; more than 100 µM in the experiment on SiHa; 2.9 µM in the experiment on Plasmodium falciparum [1]; 2.9 µM in the experiment with Plasmodium falciparum [2]; more than 100 µM in the experiment with MDA-MB-231; more than 100 µM in the experiment on IMR-32.

Regarding `CC(=O)O[C@@H]1C[C@H]2C(C)(C)C(=O)C=C[C@]2(C)[C@H]2CC[C@@]3(C)[C@H](c4ccoc4)/C(=N\OCc4cn(-c5ccc(Cl)c([N+](=O)[O-])c5)nn4)[C@H]4O[C@]43[C@@]21C`, the IC50 with PANC-1 was more than 100 µM; in the experiment with SiHa it was more than 100 µM; with Plasmodium falciparum [1], 1.3 µM; in the experiment with Plasmodium falciparum [2] it was 2.8 µM; in the experiment on MDA-MB-231, more than 100 µM; with IMR-32 it was more than 100 µM.

On to `CC(=O)O[C@@H]1C[C@H]2C(C)(C)C(=O)C=C[C@]2(C)[C@H]2CC[C@@]3(C)[C@H](c4ccoc4)/C(=N\O)[C@H]4O[C@]43[C@@]21C`, for which the concentration for half-maximal inhibition (IC50) is more than 100 µM with PANC-1; more than 100 µM with SiHa; 2.2 µM with Plasmodium falciparum [1]; 7.7 µM in the experiment on Plasmodium falciparum [2]; more than 100 µM in the experiment with MDA-MB-231; more than 100 µM in the experiment on IMR-32.

As to `CC1(C)C(=O)C=C[C@]2(C)[C@H]3CC[C@@]4(C)[C@H](c5ccoc5)C(=O)[C@H]5O[C@]54[C@]3(C)[C@H](OC(=O)c3ccc(F)c(Br)c3)C[C@@H]12`, the IC50 with PANC-1 is more than 100 µM; in the experiment with SiHa, more than 100 µM; in the experiment on Plasmodium falciparum [1], 5.5 µM; in the experiment on Plasmodium falciparum [2], 6 µM; in the experiment with MDA-MB-231 it was more than 100 µM; in the experiment on IMR-32 it was more than 100 µM.

Take `CC1(C)C(=O)C=C[C@]2(C)[C@H]3CC[C@@]4(C)[C@H](c5ccoc5)C(=O)[C@H]5O[C@]54[C@]3(C)C(=O)C[C@@H]12`: the IC50 with PANC-1 was more than 100 µM; in the experiment on SiHa, more than 100 µM; with Plasmodium falciparum [1], 20 µM; with Plasmodium falciparum [2], 12.9 µM; in the experiment on MDA-MB-231, 18 µM; in the experiment on IMR-32 it was more than 100 µM.

As to `CC(=O)O[C@@H]1C[C@H]2C(C)(C)C(=O)C=C[C@]2(C)[C@H]2CC[C@@]3(C)[C@H](c4ccoc4)/C(=N\OCc4cn(CC(=O)Nc5ccc(F)c(Cl)c5)nn4)[C@H]4O[C@]43[C@@]21C`, the IC50 was more than 100 µM in the experiment on PANC-1; more than 100 µM in the experiment on SiHa; 26 µM with Plasmodium falciparum [1]; 32 µM in the experiment on Plasmodium falciparum [2]; more than 100 µM with MDA-MB-231; more than 100 µM in the experiment on IMR-32.

Turning to `CC(=O)O[C@@H]1C[C@H]2C(C)(C)C(=O)C=C[C@]2(C)[C@H]2CC[C@@]3(C)[C@H](c4ccoc4)/C(=N\OCc4cn(-c5cc([N+](=O)[O-])ccc5Cl)nn4)[C@H]4O[C@]43[C@@]21C`, the IC50 with PANC-1 is more than 100 µM; with SiHa, more than 100 µM; in the experiment on Plasmodium falciparum [1], 3.8 µM; in the experiment with Plasmodium falciparum [2], 5.1 µM; with MDA-MB-231 it was more than 100 µM; in the experiment on IMR-32 it was more than 100 µM.

Take `C#CCO/N=C1/[C@H]2O[C@]23[C@@]2(C)[C@H](CC[C@@]3(C)[C@@H]1c1ccoc1)[C@@]1(C)C=CC(=O)C(C)(C)[C@@H]1C[C@H]2OC(C)=O`: the IC50 in the experiment on PANC-1 is more than 100 µM; with SiHa, more than 100 µM; in the experiment with Plasmodium falciparum [1], 8.4 µM; in the experiment on Plasmodium falciparum [2] it was 7 µM; with MDA-MB-231, more than 100 µM; with IMR-32, more than 100 µM.

Turning to `CCN1CCN(CC(=O)O[C@@H]2C[C@H]3C(C)(C)C(=O)C=C[C@]3(C)[C@H]3CC[C@@]4(C)[C@H](c5ccoc5)C(=O)[C@H]5O[C@]54[C@@]32C)CC1`, the IC50 was more than 100 µM with PANC-1; more than 100 µM with SiHa; 6 µM with Plasmodium falciparum [1]; 8.6 µM with Plasmodium falciparum [2]; more than 100 µM in the experiment on MDA-MB-231; more than 100 µM in the experiment with IMR-32.

For `CC1(C)C(=O)C=C[C@]2(C)[C@H]3CC[C@@]4(C)[C@H](c5ccoc5)C(=O)[C@H]5O[C@]54[C@]3(C)[C@H](O)C[C@@H]12`, the 50% inhibitory concentration (IC50) is 9.4 µM with Plasmodium falciparum [1] and 11.4 µM in the experiment on Plasmodium falciparum [2].

With `COc1cc(-n2cc(CO/N=C3/[C@H]4O[C@]45[C@@]4(C)[C@H](CC[C@@]5(C)[C@@H]3c3ccoc3)[C@@]3(C)C=CC(=O)C(C)(C)[C@@H]3C[C@H]4OC(C)=O)nn2)c(OC)cc1Cl`, the IC50 was 35.1 µM in the experiment with PANC-1; more than 100 µM with SiHa; 1.2 µM with Plasmodium falciparum [1]; 1.5 µM in the experiment with Plasmodium falciparum [2]; more than 100 µM in the experiment on MDA-MB-231; more than 100 µM in the experiment on IMR-32. The outcome in the experiment on Plasmodium berghei was inactive.

For the compound `CC(=O)O[C@@H]1C[C@H]2C(C)(C)C(=O)C=C[C@]2(C)[C@H]2CC[C@@]3(C)[C@H](c4ccoc4)/C(=N\OCc4cn(-c5ccc(C(C)=O)cc5)nn4)[C@H]4O[C@]43[C@@]21C`, the IC50 was more than 100 µM in the experiment with PANC-1; more than 100 µM in the experiment with SiHa; 2.3 µM with Plasmodium falciparum [1]; 3.1 µM in the experiment with Plasmodium falciparum [2]; more than 100 µM in the experiment on MDA-MB-231; more than 100 µM in the experiment on IMR-32.

With `CC(=O)O[C@@H]1C[C@H]2C(C)(C)C(=O)C=C[C@]2(C)[C@H]2CC[C@@]3(C)[C@H](c4ccoc4)/C(=N\OCc4cn(CC(=O)Nc5ccccc5)nn4)[C@H]4O[C@]43[C@@]21C`, the IC50 is 25.4 µM with PANC-1; more than 100 µM in the experiment on SiHa; 8.3 µM in the experiment with Plasmodium falciparum [1]; 13.8 µM in the experiment with Plasmodium falciparum [2]; more than 100 µM in the experiment on MDA-MB-231; more than 100 µM in the experiment with IMR-32.

Turning to `CC(=O)O[C@@H]1C[C@H]2C(C)(C)C(=O)C=C[C@]2(C)[C@H]2CC[C@@]3(C)[C@H](c4ccoc4)/C(=N\OCc4cn(CC(=O)Nc5ccc(C)cc5)nn4)[C@H]4O[C@]43[C@@]21C`, the IC50 in the experiment with PANC-1 is more than 100 µM; in the experiment on SiHa, more than 100 µM; in the experiment on Plasmodium falciparum [1], 24 µM; in the experiment on Plasmodium falciparum [2], 31 µM; in the experiment with MDA-MB-231 it was more than 100 µM; in the experiment with IMR-32 it was more than 100 µM.

On to `CC(=O)O[C@@H]1C[C@H]2C(C)(C)C(=O)C=C[C@]2(C)[C@H]2CC[C@@]3(C)[C@H](c4ccoc4)/C(=N\OCc4cn(CC(=O)Nc5ccc(I)c(Cl)c5)nn4)[C@H]4O[C@]43[C@@]21C`, for which the IC50 is more than 100 µM in the experiment on PANC-1; more than 100 µM in the experiment on SiHa; 87 µM with Plasmodium falciparum [1]; 53.2 µM in the experiment with Plasmodium falciparum [2]; more than 100 µM in the experiment with MDA-MB-231; more than 100 µM in the experiment on IMR-32.

Take `CC(=O)O[C@@H]1C[C@H]2C(C)(C)C(=O)C=C[C@]2(C)[C@H]2CC[C@@]3(C)[C@H](c4ccoc4)/C(=N\OC(=O)c4cccc([N+](=O)[O-])c4)[C@H]4O[C@]43[C@@]21C`: the IC50 in the experiment on PANC-1 is more than 100 µM; in the experiment on SiHa it was more than 100 µM; in the experiment with Plasmodium falciparum [2], 28.6 µM; in the experiment on MDA-MB-231, more than 100 µM; in the experiment on IMR-32, more than 100 µM.
